Data: patent publication US20250304353A1, “ANTIMICROBIAL BOTTLE WITH ANTIMICROBIAL SEAL” (Microban Products Company, priority 2017, published 2025)

Tested on: Aspergillus niger
Test: Anti-fungal efficacy of polypropylene cap, agar plate method AATCC 30 Part 3 (2017e)
Type: cell-based
Conditions: injection molded polypropylene cap with 2.0 wt % Microban IF1-5033-050 (0.1 wt % thiabendazole); MEA plates, up to 7 days at about 30° C.; two replicate sub-samples
Experimental: The anti-fungal efficacy of the polypropylene cap containing thiabendazole was tested. The fungicidal activity was determined using the agar plate method AATCC 30 Part 3 (2017e). Individual plates of Malt Extract Agar (MEA) were inoculated with Aspergillus niger from primary stock cultures held at about 2° C. to about 8° C. and then incubated at about 30° C.±2° C. for up to 7 days to produce mature spores. A spore suspension was prepared from the plates in 10 mL aliquots of sterile distilled water (SDW) and filtered using glass wool. The spore suspension was adjusted using SDW so that it contained ≥10^5 spores mL^−1. Two replicate sub-samples (i.e., the polypropylene cap with thiabendazole) were placed on the surface of individual MEA plates. A 100 μL aliquot of the spore suspension of Aspergillus niger was spread over the surface of both the sub-sample and the surrounding media. The sample plates were incubated for up to 7 days at about 30° C.±2° C. […] An injection molded polypropylene cap treated with 2.0 wt % of Microban IF1-5033-050 (i.e., 0.1 wt % of thiabendazole) was tested with Aspergillus niger.

For c1ccc2[nH]c(-c3cscn3)nc2c1 [thiabendazole], the “fungal growth (microscopic and/or macroscopic) on sub-sample and surrounding media” value was “No surface growth”.
